Measurements reported in publication PMC12030706, “Novel ^177Lu-Labeled [Thz^14]Bombesin(6–14) Derivatives with Low Pancreas Accumulation for Targeting Gastrin-Releasing Peptide Receptor-Expressing Cancer” (Pharmaceuticals, 2025).

Columns and labels:
[1] = LogD7.4 measurement, shake flask method; assay type: physicochemical; settings: n-octanol/DPBS pH 7.4, n = 3
Procedure: The logD7.4 values of all the ^177Lu-labeled GRPR-targeted ligands were measured using the shake flask method as previously reported. An aliquot (~2 MBq) of the radiolabeled product was added to a mixture of n-octanol (3 mL) and DPBS (3 mL, pH 7.4), followed by 1 min vortexing and 15 min centrifugation at 5000 rpm. Samples of the n-octanol (1 mL) and buffer (1 mL) layers were collected, and the activity was counted using a gamma counter. The logD7.4 values were calculated using the following equation: logD7.4=log10[countsn−octanolphase/countsbutterphase]

[2] = system: PC-3 tumor-bearing mice; assay: Ex vivo biodistribution in PC-3 tumor-bearing mice
Procedure: (§1) SPECT/CT imaging experiments were performed using an MILabs (Houten, The Netherlands) U-SPECT-II/CT scanner with a custom-made ultra-high-sensitivity big mouse collimator (2 mm pinhole size) following previously reported procedures. […] Male NOD.Cg-Rag1^tm1Mom Il2rg^tm1Wjl/SzJ (NRG) mice were used in these experiments because of their immunodeficient characteristics and excellent radiation tolerance. Mice were anaesthetized and subcutaneously implanted with 5 × 10^6 PC-3 prostate cancer cells (100 µL; 1:1 PBS/Matrigel) behind the left shoulder. SPECT/CT imaging and biodistribution studies were performed once the tumors reached a diameter of 5–8 mm, typically after approximately 4 weeks of growth.
(§2) For ex vivo biodistribution studies, the mice were injected with ~2–6 MBq of the radioligand. […] Blocking study was conducted at 1 h post-injection via co-injection of the radioligand with 100 μg of [D-Phe^6,Leu-NHEt^13,des-Met^14]Bombesin(6–14). Organs/tissues of interested were collected, weighed, and measured using an automatic gamma counter.

[3] = Ex vivo biodistribution in PC-3 tumor-bearing mice; settings: mouse; for tissue uptake at 4 h: 4 h post-injection; for tissue uptake at 24 h: 24 h post-injection; for tissue uptake at 72 h: 72 h post-injection; for tissue uptake at 120 h: 120 h post-injection
Procedure: as §1, §2

[4] = 1 h post-injection, 100 µg [D-Phe6,Leu-NHEt13,des-Met14]Bombesin(6–14)
[5] = PC-3 tumor, Uptake in PC-3 tumor
[6] = adrenal glands, Uptake in adrenal glands

For `CC(C)C[C@@H](CN1CSC[C@H]1C(N)=O)NC(=O)[C@H](Cc1cnc[nH]1)NC(=O)CN(C)C(=O)[C@@H](NC(=O)[C@H](C)NC(=O)[C@H](Cc1c[nH]c2ccccc12)NC(=O)[C@H](CCC(N)=O)NC(=O)[C@@H](Cc1ccccc1)NC(=O)CN1CCC(NC(=O)CN2CCN(CC(=O)O)CCN(CC(=O)O)CCN(CC(=O)O)CC2)CC1)C(C)C` [[^177Lu]Lu-TacsBOMB5, metal not drawn], the logD [1] was -2.53 ± 0.2, the “reduction of average pancreas uptake by co-injection of blocker” value [2, 4] was 45% and the “reduction of average tumor uptake by co-injection of blocker” value [2, 4] was 71%. For the same compound, the “uptake in PC-3 tumor xenografts cleared within 24 h” value ([2]; relative to 1 h uptake) was “Approximately 80%”, the tissue uptake at 1 h ([3]; PC-3 tumor, 100 ug, Uptake in PC-3 tumor, 1 h blocked (co-injected with 100 µg [D-Phe6,Leu-NHEt13,des-Met14]Bombesin(6-14))) was 2.53 ± 0.34 %ID/g and the tissue uptake at 1 h ([3]; PC-3 tumor, Uptake in PC-3 tumor, 1 h post-injection) was 8.71 ± 0.53 %ID/g. It also gave a tissue uptake at 4 h [3, 5] of 4.8 ± 0.32 %ID/g, a tissue uptake at 24 h [3, 5] of 1.77 ± 0.27 %ID/g and a tissue uptake at 72 h [3, 5] of 1.09 ± 0.19 %ID/g. For the same compound, the tissue uptake at 120 h [3, 5] was less than 1 %ID/g, the tissue uptake at 1 h ([3]; adrenal glands, 100 ug, Uptake in adrenal glands, 1 h blocked (co-injected with 100 µg [D-Phe6,Leu-NHEt13,des-Met14]Bombesin(6-14))) was 0.17 ± 0.04 %ID/g and the tissue uptake at 1 h ([3]; adrenal glands, Uptake in adrenal glands, 1 h post-injection) was 0.61 ± 0.28 %ID/g. The tissue uptake at 4 h [3, 6] was 0.29 ± 0.07 %ID/g, the tissue uptake at 24 h [3, 6] was 0.17 ± 0.02 %ID/g and the tissue uptake at 72 h [3, 6] was 0.18 ± 0.12 %ID/g. The tissue uptake at 120 h [3, 6] was 0.12 ± 0.08 %ID/g, the tissue uptake at 1 h ([3]; blood, 100 ug, Uptake in blood, 1 h blocked (co-injected with 100 µg [D-Phe6,Leu-NHEt13,des-Met14]Bombesin(6-14))) was 0.45 ± 0.11 %ID/g and the tissue uptake at 1 h ([3]; blood, Uptake in blood, 1 h post-injection) was 1.77 ± 0.14 %ID/g. The tissue uptake at 24 h ([3]; blood, Uptake in blood) was 0.21 ± 0.02 %ID/g, the tissue uptake at 72 h ([3]; blood, Uptake in blood) was 0.07 ± 0.01 %ID/g and the tissue uptake at 1 h ([3]; bone, 100 ug, Uptake in bone, 1 h blocked (co-injected with 100 µg [D-Phe6,Leu-NHEt13,des-Met14]Bombesin(6-14))) was 0.06 ± 0.03 %ID/g. For the same compound, the tissue uptake at 1 h ([3]; bone, Uptake in bone, 1 h post-injection) was 0.12 ± 0.02 %ID/g, the tissue uptake at 4 h ([3]; bone, Uptake in bone) was 0.09 ± 0.03 %ID/g and the tissue uptake at 24 h ([3]; bone, Uptake in bone) was 0.07 ± 0.02 %ID/g. The tissue uptake at 72 h ([3]; bone, Uptake in bone) was 0.07 ± 0.01 %ID/g, the tissue uptake at 120 h ([3]; bone, Uptake in bone) was 0.07 ± 0.01 %ID/g and the tissue uptake at 1 h ([3]; brain, 100 ug, Uptake in brain, 1 h blocked (co-injected with 100 µg [D-Phe6,Leu-NHEt13,des-Met14]Bombesin(6-14))) was 0.02 %ID/g. For the same compound, the tissue uptake at 1 h ([3]; brain, Uptake in brain, 1 h post-injection) was 0.04 %ID/g, the tissue uptake at 4 h ([3]; brain, Uptake in brain) was 0.02 %ID/g and the tissue uptake at 1 h ([3]; fat, 100 ug, Uptake in fat, 1 h blocked (co-injected with 100 µg [D-Phe6,Leu-NHEt13,des-Met14]Bombesin(6-14))) was 0.06 ± 0.01 %ID/g. The tissue uptake at 1 h ([3]; fat, Uptake in fat, 1 h post-injection) was 0.15 ± 0.04 %ID/g, the tissue uptake at 4 h ([3]; fat, Uptake in fat) was 0.06 ± 0.01 %ID/g and the tissue uptake at 72 h ([3]; fat, Uptake in fat) was 0.02 ± 0.01 %ID/g. The tissue uptake at 120 h ([3]; fat, Uptake in fat) was 0.01 ± 0.01 %ID/g, the tissue uptake at 1 h ([3]; heart, 100 ug, Uptake in heart, 1 h blocked (co-injected with 100 µg [D-Phe6,Leu-NHEt13,des-Met14]Bombesin(6-14))) was 0.15 ± 0.02 %ID/g and the tissue uptake at 1 h ([3]; heart, Uptake in heart, 1 h post-injection) was 0.45 ± 0.06 %ID/g. It also gave a tissue uptake at 4 h ([3]; heart, Uptake in heart) of 0.21 ± 0.03 %ID/g, a tissue uptake at 24 h ([3]; heart, Uptake in heart) of 0.09 ± 0.01 %ID/g and a tissue uptake at 72 h ([3]; heart, Uptake in heart) of 0.05 ± 0.01 %ID/g. It also gave a tissue uptake at 120 h ([3]; heart, Uptake in heart) of 0.04 ± 0.01 %ID/g, a tissue uptake at 4 h ([3]; in vivo, Uptake in blood) of 0.85 ± 0.03 %ID/g and a tissue uptake at 24 h ([3]; in vivo, Uptake in pancreas) of 0.08 ± 0.02 %ID/g. For the same compound, the tissue uptake at 72 h ([3]; in vivo, Uptake in testes) was 0.08 ± 0.04 %ID/g, the tissue uptake at 120 h ([3]; in vivo, Uptake in testes) was 0.08 ± 0.02 %ID/g and the tissue uptake at 1 h ([3]; kidneys, 100 ug, Uptake in kidneys, 1 h blocked (co-injected with 100 µg [D-Phe6,Leu-NHEt13,des-Met14]Bombesin(6-14))) was 2.78 ± 0.51 %ID/g.
